Measured values published in PMC7180948, “New Insights into 4-Anilinoquinazolines as Inhibitors of Cardiac Troponin I–Interacting Kinase (TNNi3K)” (Molecules, 2020).

How the values were obtained:
Test in all cases: biochemical
Design in all cases: KINOMEscan competition binding panel (Eurofins DiscoverX), single concentration, % inhibition
[1] = target: T1, ARK5 (Homo sapiens, UniProt O60285); details: read-out: 7 at 1 µM % inhibition
T1 construct: gene NUAK1
Method in brief: (§1)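 Values come from single-concentration (1 µM) profiling in the Eurofins DiscoverX KINOMEscan competition-binding platform, which covers over 400 kinases.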

[2] = target: T2, ERK2 (Homo sapiens, UniProt P28482); details: read-out: 7 at 1 µM % inhibition
T2 construct: gene MAPK1
T2 sequence (P28482 whole entry): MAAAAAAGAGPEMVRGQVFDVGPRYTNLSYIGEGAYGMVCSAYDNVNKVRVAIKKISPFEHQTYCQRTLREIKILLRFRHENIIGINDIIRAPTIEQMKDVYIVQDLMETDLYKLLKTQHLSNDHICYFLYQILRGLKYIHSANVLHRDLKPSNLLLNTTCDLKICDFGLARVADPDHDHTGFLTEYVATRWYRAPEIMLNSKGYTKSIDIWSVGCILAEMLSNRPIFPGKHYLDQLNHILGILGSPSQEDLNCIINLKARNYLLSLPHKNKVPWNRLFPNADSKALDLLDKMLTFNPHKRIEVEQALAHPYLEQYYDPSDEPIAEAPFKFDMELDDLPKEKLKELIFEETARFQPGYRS
Method in brief: as §1

[3] = target: T3, PFPK5(P.falciparum) (Plasmodium falciparum, UniProt P61075); details: read-out: 7 at 1 µM % inhibition (pathogen kinases)
T3 construct: gene CRK2
T3 sequence (P61075 whole entry): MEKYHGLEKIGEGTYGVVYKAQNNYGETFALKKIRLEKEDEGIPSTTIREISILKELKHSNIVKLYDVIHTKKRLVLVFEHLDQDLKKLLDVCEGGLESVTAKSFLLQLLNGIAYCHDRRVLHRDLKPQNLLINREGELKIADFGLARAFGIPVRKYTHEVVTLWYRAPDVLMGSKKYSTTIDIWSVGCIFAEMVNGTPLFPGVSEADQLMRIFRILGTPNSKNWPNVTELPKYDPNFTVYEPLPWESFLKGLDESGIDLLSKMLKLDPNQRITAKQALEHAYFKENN
Method in brief: as §1

[4] = target: CAMK2B (Homo sapiens, UniProt Q13554); details: read-out: 7 at 1 µM % inhibition
Sequence of CAMK2B (Q13554 whole entry): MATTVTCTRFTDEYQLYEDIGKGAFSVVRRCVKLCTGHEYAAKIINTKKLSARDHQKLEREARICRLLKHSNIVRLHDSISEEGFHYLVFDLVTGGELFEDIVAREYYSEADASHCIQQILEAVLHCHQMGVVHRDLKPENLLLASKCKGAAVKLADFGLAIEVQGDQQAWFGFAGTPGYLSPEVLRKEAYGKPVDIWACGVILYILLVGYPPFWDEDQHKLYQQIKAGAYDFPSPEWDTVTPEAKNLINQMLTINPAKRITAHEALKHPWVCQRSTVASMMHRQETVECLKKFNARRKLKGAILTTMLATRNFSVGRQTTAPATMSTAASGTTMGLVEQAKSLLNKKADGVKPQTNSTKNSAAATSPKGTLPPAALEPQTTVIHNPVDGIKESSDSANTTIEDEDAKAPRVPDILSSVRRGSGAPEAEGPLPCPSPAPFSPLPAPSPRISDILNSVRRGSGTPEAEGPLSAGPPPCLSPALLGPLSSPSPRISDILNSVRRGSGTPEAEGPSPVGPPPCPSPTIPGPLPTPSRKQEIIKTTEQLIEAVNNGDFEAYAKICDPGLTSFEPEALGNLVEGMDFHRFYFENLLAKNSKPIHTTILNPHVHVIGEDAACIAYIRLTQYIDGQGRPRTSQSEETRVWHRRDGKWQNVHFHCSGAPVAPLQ
Method in brief: as §1

[5] = target: CHEK1 (Homo sapiens, UniProt O14757); details: read-out: 7 at 1 µM % inhibition
Method in brief: as §1

[6] = target: MAST1 (Homo sapiens, UniProt Q9Y2H9); details: read-out: 7 at 1 µM % inhibition
Method in brief: as §1

[7] = target: DAPK1 (Homo sapiens, UniProt P53355); details: read-out: 7 at 1 µM % inhibition
Method in brief: as §1

[8] = target: T4, PRP4 (Homo sapiens, UniProt Q13523); details: read-out: 7 at 1 µM % inhibition
T4 construct: gene PRPF4B
T4 sequence (Q13523 whole entry): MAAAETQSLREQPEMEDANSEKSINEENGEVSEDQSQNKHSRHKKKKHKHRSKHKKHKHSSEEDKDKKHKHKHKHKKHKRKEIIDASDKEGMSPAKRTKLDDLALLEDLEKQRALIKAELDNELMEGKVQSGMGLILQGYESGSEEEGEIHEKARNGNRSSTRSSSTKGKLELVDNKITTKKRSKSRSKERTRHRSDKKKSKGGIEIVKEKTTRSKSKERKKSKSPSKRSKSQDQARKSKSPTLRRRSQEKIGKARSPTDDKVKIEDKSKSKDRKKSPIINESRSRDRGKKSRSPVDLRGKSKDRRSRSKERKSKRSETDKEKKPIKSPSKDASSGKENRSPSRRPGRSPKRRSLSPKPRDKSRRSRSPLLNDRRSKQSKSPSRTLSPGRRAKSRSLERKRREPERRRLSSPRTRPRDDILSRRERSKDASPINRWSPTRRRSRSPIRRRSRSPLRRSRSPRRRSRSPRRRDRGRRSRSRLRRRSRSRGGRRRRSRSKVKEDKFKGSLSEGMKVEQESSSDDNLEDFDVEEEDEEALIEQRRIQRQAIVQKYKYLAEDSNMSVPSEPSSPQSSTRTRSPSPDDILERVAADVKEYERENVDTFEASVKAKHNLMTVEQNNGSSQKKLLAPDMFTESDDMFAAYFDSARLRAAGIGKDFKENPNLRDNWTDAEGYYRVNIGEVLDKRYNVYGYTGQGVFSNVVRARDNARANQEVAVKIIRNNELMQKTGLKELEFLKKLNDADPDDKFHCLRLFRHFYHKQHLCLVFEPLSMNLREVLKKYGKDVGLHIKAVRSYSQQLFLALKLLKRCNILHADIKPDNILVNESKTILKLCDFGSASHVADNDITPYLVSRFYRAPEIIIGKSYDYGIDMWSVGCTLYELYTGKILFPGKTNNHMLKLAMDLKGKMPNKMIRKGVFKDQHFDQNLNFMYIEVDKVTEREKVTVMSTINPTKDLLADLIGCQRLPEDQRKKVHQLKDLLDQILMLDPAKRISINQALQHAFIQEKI
Method in brief: as §1

[9] = target: GRK4 (Homo sapiens, UniProt P32298); details: read-out: 7 at 1 µM % inhibition
Sequence of GRK4 (P32298 whole entry): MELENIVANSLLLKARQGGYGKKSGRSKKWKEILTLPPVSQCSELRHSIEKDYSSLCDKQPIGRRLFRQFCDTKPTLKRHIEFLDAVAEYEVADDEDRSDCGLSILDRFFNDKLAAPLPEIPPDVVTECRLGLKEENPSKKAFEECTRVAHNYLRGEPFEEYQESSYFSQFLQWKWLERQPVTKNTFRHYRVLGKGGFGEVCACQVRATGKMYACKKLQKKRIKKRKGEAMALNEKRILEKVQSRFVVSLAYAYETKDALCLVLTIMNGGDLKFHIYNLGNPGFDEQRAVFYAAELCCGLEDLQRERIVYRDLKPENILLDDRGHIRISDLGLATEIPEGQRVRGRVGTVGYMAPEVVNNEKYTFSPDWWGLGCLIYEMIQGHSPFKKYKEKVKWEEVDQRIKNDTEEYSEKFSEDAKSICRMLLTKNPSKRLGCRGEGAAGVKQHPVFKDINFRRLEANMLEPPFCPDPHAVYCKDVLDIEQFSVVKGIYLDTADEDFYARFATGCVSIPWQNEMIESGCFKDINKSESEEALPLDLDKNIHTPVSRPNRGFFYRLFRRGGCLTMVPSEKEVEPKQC
Method in brief: as §1

[10] = target: SBK1 (Homo sapiens, UniProt Q52WX2); details: read-out: 7 at 1 µM % inhibition
Sequence of SBK1 (Q52WX2 whole entry): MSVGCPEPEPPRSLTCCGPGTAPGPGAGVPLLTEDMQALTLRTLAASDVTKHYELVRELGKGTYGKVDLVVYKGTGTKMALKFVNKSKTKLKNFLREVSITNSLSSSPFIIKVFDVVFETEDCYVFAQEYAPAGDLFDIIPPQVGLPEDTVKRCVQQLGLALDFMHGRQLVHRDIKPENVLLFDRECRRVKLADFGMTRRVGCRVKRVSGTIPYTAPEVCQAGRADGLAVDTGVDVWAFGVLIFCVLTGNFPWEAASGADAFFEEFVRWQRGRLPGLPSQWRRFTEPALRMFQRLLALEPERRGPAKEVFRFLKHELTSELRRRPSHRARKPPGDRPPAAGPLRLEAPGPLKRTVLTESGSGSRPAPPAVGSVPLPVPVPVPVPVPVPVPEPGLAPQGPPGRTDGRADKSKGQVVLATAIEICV
Method in brief: as §1

[11] = target: AAK1 (Homo sapiens, UniProt Q2M2I8); details: read-out: 7 at 1 µM % inhibition
Method in brief: as §1

[12] = target: BLK (Homo sapiens, UniProt P51451); details: read-out: 7 at 1 µM % inhibition
Method in brief: as §1

[13] = target: PIK3C2G (Homo sapiens, UniProt O75747); details: read-out: 7 at 1 µM % inhibition
Method in brief: as §1

[14] = target: TSSK3 (Homo sapiens, UniProt Q96PN8); details: read-out: 7 at 1 µM % inhibition
Method in brief: as §1

[15] = target: PIK3CD (Homo sapiens, UniProt O00329); details: read-out: 7 at 1 µM % inhibition
Sequence of PIK3CD (O00329 whole entry): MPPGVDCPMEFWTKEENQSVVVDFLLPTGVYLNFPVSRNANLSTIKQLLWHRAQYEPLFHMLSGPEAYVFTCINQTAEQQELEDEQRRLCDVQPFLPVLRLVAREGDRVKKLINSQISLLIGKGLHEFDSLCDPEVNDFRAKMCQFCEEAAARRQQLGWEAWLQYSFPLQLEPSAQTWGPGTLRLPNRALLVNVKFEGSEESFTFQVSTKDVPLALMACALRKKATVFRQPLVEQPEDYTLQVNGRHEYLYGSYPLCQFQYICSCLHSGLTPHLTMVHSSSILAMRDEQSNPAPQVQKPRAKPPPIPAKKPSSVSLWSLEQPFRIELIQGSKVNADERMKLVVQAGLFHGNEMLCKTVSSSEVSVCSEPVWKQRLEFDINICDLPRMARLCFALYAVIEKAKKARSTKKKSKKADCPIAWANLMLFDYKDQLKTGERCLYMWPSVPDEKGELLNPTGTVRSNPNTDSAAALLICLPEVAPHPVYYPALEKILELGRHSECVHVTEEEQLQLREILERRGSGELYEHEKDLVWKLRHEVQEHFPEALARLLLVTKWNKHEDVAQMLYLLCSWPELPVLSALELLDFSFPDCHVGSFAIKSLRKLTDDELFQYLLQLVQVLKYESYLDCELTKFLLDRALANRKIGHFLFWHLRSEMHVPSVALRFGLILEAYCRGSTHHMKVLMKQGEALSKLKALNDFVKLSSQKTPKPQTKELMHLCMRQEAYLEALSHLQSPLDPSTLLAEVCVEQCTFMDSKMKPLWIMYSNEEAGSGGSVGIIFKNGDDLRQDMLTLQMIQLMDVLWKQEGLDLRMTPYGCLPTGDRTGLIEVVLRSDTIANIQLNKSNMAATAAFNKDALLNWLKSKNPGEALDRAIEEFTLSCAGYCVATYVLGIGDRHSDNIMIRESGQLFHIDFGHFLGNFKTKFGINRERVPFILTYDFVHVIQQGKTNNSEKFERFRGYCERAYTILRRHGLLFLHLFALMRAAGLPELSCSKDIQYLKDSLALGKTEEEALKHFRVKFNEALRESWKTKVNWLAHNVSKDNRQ
Method in brief: as §1

[16] = target: T5, TRKC (Homo sapiens, UniProt Q16288); details: read-out: 7 at 1 µM % inhibition
T5 construct: gene NTRK3
Method in brief: as §1

[17] = target: T6, MLK1 (Homo sapiens, UniProt P80192); details: read-out: 7 at 1 µM % inhibition
T6 construct: gene MAP3K9
Method in brief: as §1

[18] = target: TTK (Homo sapiens, UniProt P33981); details: read-out: 7 at 1 µM % inhibition
Method in brief: as §1

[19] = target: T7, PKAC-alpha (Homo sapiens, UniProt P17612); details: read-out: 7 at 1 µM % inhibition
T7 construct: gene PRKACA
Method in brief: as §1

[20] = target: T8, DLK (Homo sapiens, UniProt Q12852); details: read-out: 7 at 1 µM % inhibition
T8 construct: gene MAP3K12
Method in brief: as §1

[21] = target: TIE1 (Homo sapiens, UniProt P35590); details: read-out: 7 at 1 µM % inhibition
Method in brief: as §1

[22] = target: T9, YSK1 (Homo sapiens, UniProt O00506); details: read-out: 7 at 1 µM % inhibition
T9 construct: gene STK25
Method in brief: as §1

[23] = target: MKNK1 (Homo sapiens, UniProt Q9BUB5); details: read-out: 7 at 1 µM % inhibition
Method in brief: as §1

[24] = target: TRPM6 (Homo sapiens, UniProt Q9BX84); details: read-out: 7 at 1 µM % inhibition
Method in brief: as §1

T1 sequence (O60285 whole entry): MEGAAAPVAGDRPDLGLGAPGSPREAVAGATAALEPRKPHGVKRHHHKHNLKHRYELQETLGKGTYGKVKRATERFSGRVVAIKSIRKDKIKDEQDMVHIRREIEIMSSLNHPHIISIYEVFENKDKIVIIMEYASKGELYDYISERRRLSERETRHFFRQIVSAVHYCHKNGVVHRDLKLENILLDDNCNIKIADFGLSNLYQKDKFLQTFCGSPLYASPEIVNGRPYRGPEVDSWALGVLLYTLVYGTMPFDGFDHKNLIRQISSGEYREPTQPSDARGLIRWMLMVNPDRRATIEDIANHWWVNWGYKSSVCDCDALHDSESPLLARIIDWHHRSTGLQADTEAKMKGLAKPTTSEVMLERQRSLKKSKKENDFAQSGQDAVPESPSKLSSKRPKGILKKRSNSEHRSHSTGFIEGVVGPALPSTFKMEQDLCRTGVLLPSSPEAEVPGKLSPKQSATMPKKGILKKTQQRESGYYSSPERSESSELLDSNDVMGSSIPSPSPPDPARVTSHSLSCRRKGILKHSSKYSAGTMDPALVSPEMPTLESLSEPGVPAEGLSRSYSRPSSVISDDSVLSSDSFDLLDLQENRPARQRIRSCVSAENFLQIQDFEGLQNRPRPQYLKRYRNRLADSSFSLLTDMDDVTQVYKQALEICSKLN

## CNS(=O)(=O)c1ccc(N(C)C)c(Nc2ncnc3cc(OC)c(OC)cc23)c1 [compound 7, 3-((6,7-dimethoxyquinazolin-4-yl)amino)-4-(dimethylamino)-N-methylbenzenesulfonamide]
[1]
  inhibition at 1 µM: 0%
[2]
  inhibition at 1 µM: 0%
[3]
  inhibition at 1 µM: 6%
[4]
  inhibition at 1 µM: 11%
[5]
  inhibition at 1 µM: 0%
[6]
  inhibition at 1 µM: 10%
[7]
  inhibition at 1 µM: 0%
[8]
  inhibition at 1 µM: 24%
[9]
  inhibition at 1 µM: 0%
[10]
  inhibition at 1 µM: 29%
[11]
  inhibition at 1 µM: 0%
[12]
  inhibition at 1 µM: 29%
[13]
  inhibition at 1 µM: 20%
[14]
  inhibition at 1 µM: 0%
[15]
  inhibition at 1 µM: 61%
[16]
  inhibition at 1 µM: 0%
[17]
  inhibition at 1 µM: 10%
[18]
  inhibition at 1 µM: 7%
[19]
  inhibition at 1 µM: 6%
[20]
  inhibition at 1 µM: 21%
[21]
  inhibition at 1 µM: 0%
[22]
  inhibition at 1 µM: 5%
[23]
  inhibition at 1 µM: 10%
[24]
  inhibition at 1 µM: 25%
